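Results reflect a 48-hour exposure of cells in 96-well plates to compound at five concentrations. GI50 is the concentration that inhibits growth by half.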 Calls of active or inactive are those of the source. Rule as the data show it: active = GI50 up to about 1.1 µM and inactive = higher.
Tests used:
Assay in all cases: NCI anticancer screen, dose series, 48 h
[1] = test system: KM12
[2] = test system: OVCAR-8
[3] = test system: SNB-75
[4] = test system: IGROV-1
[5] = test system: M14
[6] = test system: NCI-H226
[7] = test system: CCRF-CEM
[8] = test system: SK-MEL-28
[9] = test system: SW-620
[10] = test system: ACHN
[11] = test system: A498
[12] = test system: A549
[13] = test system: MDA-N
[14] = test system: SF-539
[15] = test system: Hs-578T
[16] = test system: SN12C
[17] = test system: SF-268
[18] = test system: HCC 2998
[19] = test system: SR
[20] = test system: OVCAR-3
[21] = test system: OVCAR-4
[22] = test system: UACC-257
[23] = test system: Malme-3M
[24] = test system: COLO 205
[25] = test system: MDA-MB-231
[26] = test system: HT-29
[27] = test system: HOP-92
[28] = test system: MDA-MB-435
[29] = test system: OVCAR-5
[30] = test system: SF-295
[31] = test system: EKVX
[32] = test system: NCI-H522
[33] = test system: MOLT-4
[34] = test system: T47D
[35] = test system: HL-60
[36] = test system: DU-145
[37] = test system: NCI-H23
[38] = test system: SK-MEL-2
[39] = test system: CAKI-1
[40] = test system: RXF 393
[41] = test system: LOX IMVI
[42] = test system: U-251
[43] = test system: BT-549
[44] = test system: RPMI-8226
[45] = test system: SK-MEL-5
[46] = test system: NCI/ADR-RES
[47] = test system: HOP-62
[48] = test system: SNB-19
[49] = test system: 786-0
[50] = test system: PC-3
[51] = test system: UO-31
[52] = test system: MCF7
[53] = test system: SK-OV-3
[54] = test system: TK-10
[55] = test system: HCT-15
[56] = test system: HCT-116
[57] = test system: UACC-62
[58] = test system: K562
[59] = test system: NCI-H460

## COC1(CC[C@H](C)COC2OC(CO)C(O)C(O)C2O)O[C@H]2C[C@H]3[C@@H]4CC=C5C[C@@H](OC6OC(CO)C(OC7OC(C)C(O)C(O)C7O)C(O)C6OC6OC(C)C(O)C(O)C6O)CC[C@]5(C)[C@H]4CC[C@]3(C)[C@H]2[C@@H]1C (stereo partly drawn)
[1]
  GI50: 2.47 µM (inactive)
[2]
  GI50: 3.37 µM (inactive)
[3]
  GI50: 1.86 µM (inactive)
[4]
  GI50: 6.73 µM (inactive)
[5]
  GI50: 3.12 µM (inactive)
[6]
  GI50: 5.73 µM (inactive)
[7]
  GI50: 11.1 µM (inactive)
[8]
  GI50: 3.77 µM (inactive)
[9]
  GI50: 2.67 µM (inactive)
[10]
  GI50: 12 µM (inactive)
[11]
  GI50: 23.5 µM (inactive)
[12]
  GI50: 1.99 µM (inactive)
[13]
  GI50: 2.88 µM (inactive)
[14]
  GI50: 1.96 µM (inactive)
[15]
  GI50: 1.9 µM (inactive)
[16]
  GI50: 7.76 µM (inactive)
[17]
  GI50: 3.24 µM (inactive)
[18]
  GI50: 6.32 µM (inactive)
[19]
  GI50: > 100 µM (inactive)
[20]
  GI50: 6.1 µM (inactive)
[21]
  GI50: 3.78 µM (inactive)
[22]
  GI50: 5.51 µM (inactive)
[23]
  GI50: 3.45 µM (inactive)
[24]
  GI50: 6.25 µM (inactive)
[25]
  GI50: 5.05 µM (inactive)
[26]
  GI50: 2.52 µM (inactive)
[27]
  GI50: 1.9 µM (inactive)
[28]
  GI50: 1.77 µM (inactive)
[29]
  GI50: 4.2 µM (inactive)
[30]
  GI50: 4.29 µM (inactive)
[31]
  GI50: 19.5 µM (inactive)
[32]
  GI50: 2.31 µM (inactive)
[33]
  GI50: > 23.5 µM (inactive)
[34]
  GI50: 2.45 µM (inactive)
[35]
  GI50: 8.55 µM (inactive)
[36]
  GI50: 2.42 µM (inactive)
[37]
  GI50: 5.53 µM (inactive)
[38]
  GI50: 3.78 µM (inactive)
[39]
  GI50: 1.48 µM (inactive)
[40]
  GI50: 4.57 µM (inactive)
[41]
  GI50: 1.9 µM (inactive)
[42]
  GI50: 2.4 µM (inactive)
[43]
  GI50: 4.88 µM (inactive)
[44]
  GI50: 2.32 µM (inactive)
[45]
  GI50: 4.98 µM (inactive)
[46]
  GI50: 3.67 µM (inactive)
[47]
  GI50: 1.87 µM (inactive)
[48]
  GI50: 3.46 µM (inactive)
[49]
  GI50: 2.42 µM (inactive)
[50]
  GI50: 3.28 µM (inactive)
[51]
  GI50: 2.47 µM (inactive)
[52]
  GI50: 8.45 µM (inactive)
[53]
  GI50: 2.82 µM (inactive)
[54]
  GI50: 35.6 µM (inactive)
[55]
  GI50: 2.68 µM

## COCCc1c(C)c(C#N)c2n(C)c3ccccc3n2c1=O
[1]
  GI50: > 10 µM (inactive)
[56]
  GI50: > 10 µM (inactive)
[2]
  GI50: > 10 µM (inactive)
[3]
  GI50: > 10 µM (inactive)
[4]
  GI50: > 10 µM (inactive)
[5]
  GI50: > 10 µM (inactive)
[6]
  GI50: > 10 µM (inactive)
[8]
  GI50: > 10 µM (inactive)
[9]
  GI50: > 10 µM (inactive)
[10]
  GI50: > 10 µM (inactive)
[11]
  GI50: > 10 µM (inactive)
[57]
  GI50: > 10 µM (inactive)
[58]
  GI50: 0.566 µM (active)
[12]
  GI50: > 10 µM (inactive)
[13]
  GI50: > 10 µM (inactive)
[59]
  GI50: > 10 µM (inactive)
[14]
  GI50: > 10 µM (inactive)
[15]
  GI50: > 10 µM (inactive)
[16]
  GI50: > 10 µM (inactive)
[17]
  GI50: > 10 µM (inactive)
[18]
  GI50: > 10 µM (inactive)
[19]
  GI50: > 10 µM (inactive)
[20]
  GI50: > 10 µM (inactive)
[21]
  GI50: > 10 µM (inactive)
[22]
  GI50: > 10 µM (inactive)
[23]
  GI50: > 10 µM (inactive)
[24]
  GI50: > 10 µM (inactive)
[25]
  GI50: > 10 µM (inactive)
[26]
  GI50: > 10 µM (inactive)
[27]
  GI50: > 10 µM (inactive)
[28]
  GI50: > 10 µM (inactive)
[29]
  GI50: > 10 µM (inactive)
[30]
  GI50: > 10 µM (inactive)
[31]
  GI50: > 10 µM (inactive)
[32]
  GI50: > 10 µM (inactive)
[33]
  GI50: > 10 µM (inactive)
[34]
  GI50: > 10 µM (inactive)
[35]
  GI50: 0.00575 µM (active)
[36]
  GI50: > 10 µM (inactive)
[37]
  GI50: > 10 µM (inactive)
[38]
  GI50: > 10 µM (inactive)
[39]
  GI50: > 10 µM (inactive)
[40]
  GI50: > 10 µM (inactive)
[41]
  GI50: > 10 µM (inactive)
[42]
  GI50: > 10 µM (inactive)
[43]
  GI50: > 10 µM (inactive)
[44]
  GI50: > 10 µM (inactive)
[45]
  GI50: > 10 µM (inactive)
[46]
  GI50: > 10 µM (inactive)
[47]
  GI50: > 10 µM (inactive)
[48]
  GI50: > 10 µM (inactive)
[49]
  GI50: > 10 µM (inactive)
[50]
  GI50: > 10 µM (inactive)
[52]
  GI50: > 10 µM (inactive)
[53]
  GI50: > 10 µM (inactive)
[54]
  GI50: > 10 µM (inactive)
[55]
  GI50: > 10 µM

## COc1ccc(CC2CCc3nc(N)nc(N)c3C2)cc1OC (stereo not drawn)
[1]
  GI50: 1.28 µM (inactive)
[56]
  GI50: 0.0349 µM (active)
[2]
  GI50: 14.6 µM (inactive)
[3]
  GI50: 1.46 µM (inactive)
[4]
  GI50: 0.11 µM (active)
[5]
  GI50: 0.851 µM (active)
[6]
  GI50: 12.1 µM (inactive)
[8]
  GI50: 36.4 µM (inactive)
[9]
  GI50: 6.03 µM (inactive)
[10]
  GI50: 0.16 µM (active)
[11]
  GI50: 17.3 µM (inactive)
[57]
  GI50: 0.0612 µM (active)
[58]
  GI50: 18.3 µM (inactive)
[12]
  GI50: 0.0481 µM (active)
[13]
  GI50: 0.0507 µM (active)
[59]
  GI50: 0.0411 µM (active)
[14]
  GI50: 2.25 µM (inactive)
[15]
  GI50: > 56.1 µM (inactive)
[16]
  GI50: 22.9 µM (inactive)
[17]
  GI50: 0.173 µM (active)
[18]
  GI50: 0.687 µM (active)
[19]
  GI50: 3.7 µM (inactive)
[20]
  GI50: 5.47 µM (inactive)
[21]
  GI50: > 43.3 µM (inactive)
[22]
  GI50: 15.3 µM (inactive)
[23]
  GI50: 0.83 µM (active)
[24]
  GI50: 2.94 µM (inactive)
[25]
  GI50: 12.9 µM (inactive)
[26]
  GI50: 1.79 µM (inactive)
[27]
  GI50: 36 µM (inactive)
[28]
  GI50: 1.41 µM (inactive)
[29]
  GI50: 1.51 µM (inactive)
[30]
  GI50: 0.168 µM (active)
[31]
  GI50: 2.01 µM (inactive)
[32]
  GI50: 0.489 µM (active)
[33]
  GI50: 0.522 µM (active)
[34]
  GI50: 18.9 µM (inactive)
[35]
  GI50: 14.8 µM (inactive)
[36]
  GI50: 0.681 µM (active)
[37]
  GI50: 0.564 µM (active)
[38]
  GI50: > 57.3 µM (inactive)
[39]
  GI50: 2.29 µM (inactive)
[40]
  GI50: 0.0292 µM (active)
[41]
  GI50: 0.065 µM (active)
[42]
  GI50: 38.6 µM (inactive)
[43]
  GI50: 0.246 µM (active)
[44]
  GI50: 13.1 µM (inactive)
[45]
  GI50: 0.4 µM (active)
[46]
  GI50: 1.29 µM (inactive)
[47]
  GI50: 13.7 µM (inactive)
[49]
  GI50: 0.0551 µM (active)
[50]
  GI50: 0.0716 µM (active)
[51]
  GI50: 13.8 µM (inactive)
[52]
  GI50: 1.15 µM (inactive)
[54]
  GI50: 7.6 µM (inactive)
[55]
  GI50: 0.104 µM

Reference: ChEMBL document CHEMBL1201862, “PubChem BioAssay data set” (2004)
